The target of assay [1] is T1, HPK1 kinase (aa1-346, Life Technologies) (Homo sapiens, UniProt Q92918).
T1 construct: HPK1 kinase (aa1-346, Life Technologies); purchased Life Technologies
T1 sequence (Q92918 1-346): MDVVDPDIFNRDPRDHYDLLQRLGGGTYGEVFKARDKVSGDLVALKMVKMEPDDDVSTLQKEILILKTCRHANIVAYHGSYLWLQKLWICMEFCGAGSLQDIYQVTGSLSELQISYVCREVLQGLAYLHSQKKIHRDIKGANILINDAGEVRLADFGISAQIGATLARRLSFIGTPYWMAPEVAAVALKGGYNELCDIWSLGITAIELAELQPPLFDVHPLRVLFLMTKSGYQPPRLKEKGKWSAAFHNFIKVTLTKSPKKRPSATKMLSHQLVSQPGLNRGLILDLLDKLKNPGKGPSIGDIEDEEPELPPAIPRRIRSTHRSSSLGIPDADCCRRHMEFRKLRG
In words: HPK Kinase Activity Assay at 1 mM ATP (TR-FRET). Type of assay: biochemical. To be noted: HPK1 kinase 40 nM, 0.5 μM STK1 substrate, 60 min preincubation, read-out: Enzymatic activity IC50. As to the method:
HPK Kinase Activity Assay at 1 mM ATP
Compounds disclosed herein were tested for inhibition of HPK1 kinase (aa1-346, Life Technologies) activity in assays based on the time-resolved fluorescence-resonance energy transfer (TR-FRET) methodology. The assays were carried out in 384-well low volume black plates in a reaction mixture containing HPK1 kinase (40 nM), 1 mM ATP, 0.5 μM STK1 substrate and 0-10 μM compound in buffer containing 50 mM HEPES, 0.01% BSA, 0.1 mM Orthovanadate, 10 mM MgCl2, 1 mM DTT, pH=7.0, 0.005% Tween-20. The kinase was incubated with the compounds disclosed herein or DMSO for 60 minutes at room temperature and the reaction was initiated by the addition of ATP and STK1 substrate. After reaction at room temperature for 120 minutes, an equal volume of stop/detection solution was added according to the manufacture's instruction (CisBio). The stop/detection solution contained STK Antibody—Cryptate and XL665-conjugated streptavidin in Detection Buffer. The TR-FRET signals (ratio of fluorescence emission at 665 nm over emission at 620 nm with excitation at 337 nm wavelength) were recorded on a PHERAstar FS plate reader (BMG Labtech). Phosphorylation of STK1 substrate led to the binding of STK Antibody—Cryptate to the biotinylated STK1 substrate, which places fluorescent donor (Eu^3+ crypate) in close proximity to the accepter (Streptavidin-XL665), thus resulting in a high degree of fluorescence resonance energy transfer. The inhibition of HPK1 in presence of increasing concentrations of compounds was calculated based on the ratio of fluorescence at 665 nm to that at 620 nm. IC50 determination was performed by fitting the curve of percent inhibition versus the log of the inhibitor concentration using Dotmatics.
In general terms: TR-FRET usually uses a lanthanide donor and a delayed reading to cut background.

In assay [2] the test system is pSLP76 (S376) level in Jurkat cell line. Briefly: Cellular pSLP76(S376) HTRF Assay in Jurkat cells. Type of assay: cell-based. To be noted: 2 h compound treatment, stimulated with 0.05 μg/mL anti-human CD3 (OKT3) for 30 min. As to the method: Cellular pSLP76(S376) HTRF Assay
Jurkat cell line was used in this study. Cells were maintained in RPMI 1640 supplemented with heat-inactivated 10% fetal bovine serum (Thermo Fisher), 50 units/mL penicillin and streptomycin (Thermo Fisher) and kept at 37° C. in a humidified atmosphere of 5% CO2 in air. Cells were reinstated from frozen stocks that were laid down within 30 passages from the original cells purchased. After cell starvation in the assay buffer (RPMI 1640 supplemented with heat-inactivated 0.1% fetal bovine serum) for 18 hours, cells were seeded into a round bottom 96-well plate at 150,000 cells per well density. Cells were treated with a 9-point dilution series of test compounds. The final compound concentration is from 0 to 2 μM. After 2 h compound treatment, cells were stimulated with 0.05 μg/mL anti-human CD3 (OKT3, Bioxcell) for 30 min at 37° C. Then the cells were lysed, and the pSLP76 (S376) level in the cell lysates was detected by HTRF kit (Cisbio). A total of 16 μL of cell lysate from each well of a 96-well plate was transferred to a 384-well small volume white assay plate. Lysate from each well was incubated with 2 μL of Eu^3+-cryptate (donor) labeled anti-phospho-SLP76 and 2 μL of D2 (acceptor) labeled anti-phospho-SLP76 antibodies (Cisbio) overnight in dark at room temperature. FRET signals (655 nm) were measured using a PHERAstar FSX reader (BMG Labtech). IC50 determination was performed by fitting the curve of percent inhibition versus the log of the inhibitor concentration using Dotmatics.

The target of another assay is T2, HPK1 protein (Homo sapiens, UniProt Q92918).
T2 construct: host or cells: human PBMC (CD4+ and CD8+ T cells gated in the FACS assay)
T2 sequence (Q92918 whole entry): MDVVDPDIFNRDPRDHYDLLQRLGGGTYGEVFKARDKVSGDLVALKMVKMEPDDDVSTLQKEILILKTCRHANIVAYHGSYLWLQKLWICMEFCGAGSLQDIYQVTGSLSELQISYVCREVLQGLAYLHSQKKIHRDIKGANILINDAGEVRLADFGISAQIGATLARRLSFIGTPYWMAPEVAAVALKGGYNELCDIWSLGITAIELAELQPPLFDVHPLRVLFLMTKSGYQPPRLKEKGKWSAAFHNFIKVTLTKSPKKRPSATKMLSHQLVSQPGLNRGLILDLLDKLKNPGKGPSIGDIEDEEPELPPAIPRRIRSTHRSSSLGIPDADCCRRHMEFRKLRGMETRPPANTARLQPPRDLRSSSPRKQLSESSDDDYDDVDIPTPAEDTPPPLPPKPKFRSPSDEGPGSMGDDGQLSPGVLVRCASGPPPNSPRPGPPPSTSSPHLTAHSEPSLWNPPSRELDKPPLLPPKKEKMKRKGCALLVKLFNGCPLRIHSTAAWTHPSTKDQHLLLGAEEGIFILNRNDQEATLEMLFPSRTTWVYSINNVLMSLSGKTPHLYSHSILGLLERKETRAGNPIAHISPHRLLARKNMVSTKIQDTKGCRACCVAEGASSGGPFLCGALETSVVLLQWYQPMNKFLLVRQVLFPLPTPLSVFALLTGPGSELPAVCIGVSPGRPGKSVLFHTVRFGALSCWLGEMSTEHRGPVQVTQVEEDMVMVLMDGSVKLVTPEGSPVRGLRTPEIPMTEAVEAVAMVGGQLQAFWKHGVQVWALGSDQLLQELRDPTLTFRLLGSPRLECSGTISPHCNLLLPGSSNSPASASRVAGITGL
Briefly: HPK1 Protein Degradation Assay in Human PBMC (Western Blot). Type of assay: cell-based. To be noted: 24 h compound incubation. The protocol:
HPK1 Protein Degradation Assay in Human PBMC (Western Blot)
Human PBMCs (AllCells) was used in this study. Cells were thawed one day in advance and maintained in RPMI-1640 supplemented 10% fetal bovine serum (Thermo Fisher), 50 units/mL penicillin and streptomycin (Thermo Fisher) and the mixture was kept at 37° C. in a humidified atmosphere air containing 5% CO2. 3×10^6 PBMCs per well in 1 mL culture medium were seeded in the 12-well plate, and the cells were treated with an appropriate dilution series of compounds with a final concentration up to […]. After 24 h of compound incubation, the medium was aspirated, the cells were washed with PBS, and then 30 μL of 1X protein lysis buffer (Cell Signaling Technology) containing protease inhibitors (Merck) and phosphatase inhibitors (Sigma) was added. The cells were lysed. After centrifugation, the supernatants were quantified by BCA protein assay kit (Thermo Fisher). 4X loading Buffer (Thermo Fisher) was added to equal amounts of total protein from each sample and heated at 95° C. for 5 minutes. 30-50 μg of cell lysate was loaded onto a 4%-12% NuPAGE Bis-Tris Gel (Thermo Fisher) and electro-transferred to NC membranes (Thermo Fisher). The membranes were blocked for least 1 hour with blocking reagent (LI-COR), and then incubated overnight with anti-HPK1 (Cell Signaling Technology, 4472S) antibodies and as loading control anti-ß-actin (Cell Signaling Technology, 3700S) or anti-GAPDH (Cell Signaling Technology, 97166S) at 4° C. with gentle shaking. The membranes were washed three times with TBST, and incubated at least 1 hour at room temperature with anti-mouse or anti-rabbit secondary fluorescent antibody (Thermo Fisher, A32729; LI—COR, 926-32213). Then the membranes were washed three times in TBST, and one time in water. Immunoreactive bands were visualized by Odyssey CLx and analyzed by GraphPad Prism 8.
For orientation: Immunoblotting shows a protein as a band on a membrane.

As to `Cc1cc(-c2c[nH]c3ncc(-c4cc(C)c5c(c4)CCN(CCC(=O)NC4CCN(c6ccc(N7CCC(=O)NC7=O)cc6)CC4)C5)nc23)ccc1C(=O)N(C)C` [Example 4, 4-(2-(2-(3-((1-(4-(2,4-dioxotetrahydropyrimidin-1(2H)-yl)phenyl)piperidin-4-yl)amino)-3-oxopropyl)-8-methyl-1,2,3,4-tetrahydroisoquinolin-6-yl)-5H-pyrrolo[2,3-b]pyrazin-7-yl)-N,N,2-trimethylbenzamide], the IC50 (commonly the concentration at which inhibition is half-maximal) in assay [1] worked out at 140 nM. This molecule came in with a half-inhibitory concentration (IC50) in assay [2] of 459 nM. On HPK1 protein, the DC50 (in general, the midpoint of the concentration-degradation curve) was 59 nM; the maximal degradation (Dmax) (in general, the largest share of the target that was removed) amounted to 95%; the “Protein degradation DC90” value was found to be 817 nM.

With `Cc1cc(-c2c[nH]c3ncc(-c4cc(C)c5c(c4)CCN(CCNC(=O)C4CCN(c6ccc7c(c6)C(=O)N(C6CCC(=O)NC6=O)C7=O)CC4)C5)nc23)ccc1C(=O)N(C)C` (centres unmarked) [Example 1, N-(2-(6-(7-(4-(dimethylcarbamoyl)-3-methylphenyl)-5H-pyrrolo[2,3-b]pyrazin-2-yl)-8-methyl-3,4-dihydroisoquinolin-2(1H)-yl)ethyl)-1-(2-(2,6-dioxopiperidin-3-yl)-1,3-dioxoisoindolin-5-yl)piperidine-4-carboxamide], the half-inhibitory concentration (IC50) in assay [1] worked out at 121 nM. Moreover, the IC50 in assay [2] amounted to 879 nM. Besides, at HPK1 protein, half-maximal degradation (DC50) was put at 183 nM, the Dmax was 47% and the “Protein degradation DC90” value came to 3805 nM.

Turning to `Cc1cc(-c2c[nH]c3ncc(-c4cc(C)c5c(c4)CCN(CCC(=O)NCC4CCN(c6ccc(C7CCC(=O)NC7=O)cc6)CC4)C5)nc23)ccc1C(=O)N(C)C` (centres unmarked) [Example 2, 4-(2-(2-(3-(((1-(4-(2,6-dioxopiperidin-3-yl)phenyl)piperidin-4-yl)methyl)amino)-3-oxopropyl)-8-methyl-1,2,3,4-tetrahydroisoquinolin-6-yl)-5H-pyrrolo[2,3-b]pyrazin-7-yl)-N,N,2-trimethylbenzamide], in assay [1], the IC50 was found to be 253 nM. The molecule further gave an IC50 in assay [2] of 515 nM. Besides, on HPK1 protein, it took 87 nM to reach half-maximal degradation (DC50), the greatest degradation seen (Dmax) came to 91% and the “Protein degradation DC90” value is listed as 294 nM.

Turning to `Cc1cc(-c2c[nH]c3ncc(-c4cc(C)c5c(c4)CCN(CCC(=O)N4CCN(c6ccc(N7CCC(=O)NC7=O)cc6)CC4)C5)nc23)ccc1C(=O)N(C)C` [Example 3, 4-(2-(2-(3-(4-(4-(2,4-dioxotetrahydropyrimidin-1(2H)-yl)phenyl)piperazin-1-yl)-3-oxopropyl)-8-methyl-1,2,3,4-tetrahydroisoquinolin-6-yl)-5H-pyrrolo[2,3-b]pyrazin-7-yl)-N,N,2-trimethylbenzamide], the IC50 in assay [1] was determined as 61 nM. Moreover, the IC50 in assay [2] was 193 nM. Further, on HPK1 protein, the DC50 is 23 nM, the greatest degradation seen (Dmax) was found to be 97% and the “Protein degradation DC90” value amounted to 215 nM.
